According to PubChem BioAssay (NCI):
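Cells were grown in 96-well plates and exposed to each compound for 48 hours at five concentrations; endpoints were interpolated linearly between bracketing concentrations, or set to the highest concentration if not reached. The concentration for full growth arrest is given as TGI.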

Tests used:
Assay in all cases: NCI-60 cell line screen, 48 h
786-0 renal = tested on: 786-0 renal
CCRF-CEM leukemia = tested on: CCRF-CEM leukemia
COLO 205 colon = tested on: COLO 205 colon
EKVX NSCLC = tested on: EKVX NSCLC
HCC-2998 colon = tested on: HCC-2998 colon
HL-60(TB) leukemia = tested on: HL-60(TB) leukemia
HOP-62 NSCLC = tested on: HOP-62 NSCLC
HT29 colon = tested on: HT29 colon
KM12 colon = tested on: KM12 colon
MDA-MB-435 = tested on: MDA-MB-435
MDA-N = tested on: MDA-N
MOLT-4 leukemia = tested on: MOLT-4 leukemia
NCI-H23 lung = tested on: NCI-H23 lung
PC-3 prostate = tested on: PC-3 prostate
RPMI-8226 leukemia = tested on: RPMI-8226 leukemia
SF-268 CNS = tested on: SF-268 CNS
SK-OV-3 ovarian = tested on: SK-OV-3 ovarian
SN12C renal = tested on: SN12C renal
UACC-257 melanoma = tested on: UACC-257 melanoma
RXF 393 renal = tested on: RXF 393 renal

| Compound | TGI (786-0 renal) [µM] | TGI (CCRF-CEM leukemia) [µM] | TGI (COLO 205 colon) [µM] | TGI (EKVX NSCLC) [µM] | TGI (HCC-2998 colon) [µM] | TGI (HL-60(TB) leukemia) [µM] | TGI (HOP-62 NSCLC) [µM] | TGI (HT29 colon) [µM] | TGI (KM12 colon) [µM] | TGI (MDA-MB-435) [µM] | TGI (MDA-N) [µM] | TGI (MOLT-4 leukemia) [µM] | TGI (NCI-H23 lung) [µM] | TGI (PC-3 prostate) [µM] | TGI (RPMI-8226 leukemia) [µM] | TGI (SF-268 CNS) [µM] | TGI (SK-OV-3 ovarian) [µM] | TGI (SN12C renal) [µM] | TGI (UACC-257 melanoma) [µM] | TGI (RXF 393 renal) [µM] |
| --- | --- | --- | --- | --- | --- | --- | --- | --- | --- | --- | --- | --- | --- | --- | --- | --- | --- | --- | --- | --- |
| C=CCOCn1cc(F)c(=O)[nH]c1=O | > 100 | > 100 | > 100 | > 100 | > 100 | > 100 | > 100 | > 100 | > 100 | > 100 | > 100 | > 100 | > 100 | > 100 | > 100 | > 100 | > 100 | > 100 | > 100 |  |
| COC1=C2CC(C)CC(OC)C(OC(=O)CN)[C@H](C)/C=C(\C)C(OC(N)=O)C(OC)/C=C\C=C(/C)C(=O)NC(=CC1=O)C2=O (some centres undefined) | 6.45 |  | 0.559 | 13.1 | 7.81 |  | 6.02 | 11.2 | 4.29 | 2.89 | 3.34 | 1.57 | 1.77 | 13.3 | > 100 | 16.4 | 16.7 | 4.91 | 1.02 | 8.21 |
| COC(=O)CN1C(=O)C2(C(=O)OC)OC1(c1ccc([N+](=O)[O-])cc1)C1C(=O)N(c3ccccc3)C(=O)C12 (centres undefined) | > 100 | > 100 | > 100 | > 100 |  | > 100 | > 100 | > 100 | > 100 | > 100 | > 100 | > 100 | > 100 | > 100 |  | > 100 | > 100 | > 100 | > 100 | > 100 |
| NC(CCP(=O)(O)O)C(=O)O (centres undefined) | > 100 | > 100 |  | > 100 |  | > 100 | > 100 | > 100 | > 100 | > 100 | > 100 | > 100 | > 100 | > 100 | > 100 | > 100 |  | > 100 | > 100 | > 100 |
| CCOC(=O)c1c(N2CCCC2)[nH]c(=O)c(C(c2ccc(Cl)c([N+](=O)[O-])c2)c2c(O)c(C(=O)OCC)c(N3CCCC3)[nH]c2=O)c1O | > 100 | 79.3 | > 100 | > 100 | > 100 |  | > 100 |  | > 100 | > 100 | 79.6 | > 100 | 48.9 | 83.9 | > 100 | 55.2 | > 100 | > 100 | > 100 | 99.6 |
| CN(C)C(=S)C(Cl)(c1ccccc1)c1ccccc1 | > 100 | > 100 | > 100 | 75 | > 100 | 71.6 | > 100 | 77.3 | > 100 | > 100 | > 100 | > 100 | > 100 | > 100 |  | > 100 | > 100 | > 100 | > 100 |  |
| O=C1c2ccccc2C(=O)c2c(NC(=O)C3CC3)ccc(NC(=O)C3CC3)c21 | > 100 |  | > 100 | > 100 | > 100 | > 100 | > 100 | > 100 | > 100 | > 100 | > 100 | > 100 | > 100 | > 100 | > 100 |  |  | > 100 | > 100 |  |
